Usually inhibition stands for the relative decrease from the control value, in per cent. For orientation: Ki means the dissociation constant of the complex between target and ligand, obtained from inhibition or displacement. The pKi is the Ki on a negative log10 scale, so that one unit is a factor of ten.

SMILES strings stand for the structures.

The target in assay [1] is Tyrosine-protein kinase Lck (Homo sapiens) (UniProt P06239). Kind of assay: LCK_CE Eurofins SafetyScreen44 (BI). The conditions noted are these: Compound concentration 10.0 uM.
Sequence of Tyrosine-protein kinase Lck (Homo sapiens) (P06239 2-509 limits assumed): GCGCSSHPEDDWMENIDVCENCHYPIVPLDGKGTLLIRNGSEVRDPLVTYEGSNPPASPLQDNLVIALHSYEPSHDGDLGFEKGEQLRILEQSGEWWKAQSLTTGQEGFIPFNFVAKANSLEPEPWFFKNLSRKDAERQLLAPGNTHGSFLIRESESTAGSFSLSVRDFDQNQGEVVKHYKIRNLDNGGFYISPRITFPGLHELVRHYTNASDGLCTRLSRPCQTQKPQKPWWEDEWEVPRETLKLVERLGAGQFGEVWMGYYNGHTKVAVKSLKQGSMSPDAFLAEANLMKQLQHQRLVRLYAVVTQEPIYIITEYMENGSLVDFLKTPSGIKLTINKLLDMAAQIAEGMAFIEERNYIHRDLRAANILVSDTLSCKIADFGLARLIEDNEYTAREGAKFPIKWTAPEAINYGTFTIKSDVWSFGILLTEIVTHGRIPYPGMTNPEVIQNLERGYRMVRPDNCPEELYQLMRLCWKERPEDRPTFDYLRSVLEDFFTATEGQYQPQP
Assay [2] has as its target Histamine H2 receptor (Homo sapiens) (UniProt P25021). Description: H2/APT/HS Eurofins SafetyScreen44 (BI). The conditions noted are these: filed as antagonist, Compound concentration 10.0 uM.
Assay [3] concerns the target Cannabinoid receptor 2 (Homo sapiens) (UniProt P34972). Description: CB2/PERIPH/H Eurofins SafetyScreen44 (BI). The settings on record: Compound concentration 10.0 uM.
Assay [4] addresses Beta-2 adrenergic receptor (Homo sapiens) (UniProt P07550). Kind of assay: BETA2/HUM Eurofins SafetyScreen44 (BI). The conditions noted are these: filed as antagonist, Compound concentration 10.0 uM.
For assay [5], the target named is Sodium-dependent serotonin transporter (Homo sapiens) (UniProt P31645). Kind of assay: SLC6A4/H Eurofins SafetyScreen44 (BI). The settings on record: filed as antagonist, Compound concentration 10.0 uM.
Sequence of Sodium-dependent serotonin transporter (Homo sapiens) (P31645 whole entry, looked up): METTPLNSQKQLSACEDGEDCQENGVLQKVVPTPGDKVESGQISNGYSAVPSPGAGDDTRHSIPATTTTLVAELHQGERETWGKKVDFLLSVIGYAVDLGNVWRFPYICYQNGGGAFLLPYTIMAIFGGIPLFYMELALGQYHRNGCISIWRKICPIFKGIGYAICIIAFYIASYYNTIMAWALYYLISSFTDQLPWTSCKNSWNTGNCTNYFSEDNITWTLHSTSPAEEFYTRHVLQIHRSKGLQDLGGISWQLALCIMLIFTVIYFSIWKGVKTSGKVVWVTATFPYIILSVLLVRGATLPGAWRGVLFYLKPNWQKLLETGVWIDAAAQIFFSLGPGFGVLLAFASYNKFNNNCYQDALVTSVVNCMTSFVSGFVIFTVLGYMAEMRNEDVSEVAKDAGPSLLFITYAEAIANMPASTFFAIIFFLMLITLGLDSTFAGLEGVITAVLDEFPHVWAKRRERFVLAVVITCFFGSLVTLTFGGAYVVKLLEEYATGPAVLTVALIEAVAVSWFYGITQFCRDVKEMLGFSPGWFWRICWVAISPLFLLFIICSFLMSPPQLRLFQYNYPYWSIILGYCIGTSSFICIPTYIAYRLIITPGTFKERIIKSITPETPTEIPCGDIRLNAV
In assay [6] the target is Potassium voltage-gated channel subfamily V member 1 (Rattus norvegicus) (UniProt P97557). Kind of assay: K+/VOLT/RA Eurofins SafetyScreen44 (BI). The settings on record: Compound concentration 10.0 uM.
Assay [7] concerns the target Glutamate receptor ionotropic, NMDA 2A (Rattus norvegicus) (UniProt Q00959). Description: NMDA/R Eurofins SafetyScreen44 (BI). The settings on record: Compound concentration 10.0 uM.
The target in assay [8] is Kappa-type opioid receptor (Homo sapiens) (UniProt P41145). Kind of assay: KAPPA(KOP)_HU Eurofins SafetyScreen44 (BI). The conditions noted are these: Compound concentration 10.0 uM.
In assay [9] the target is Androgen receptor (Homo sapiens) (UniProt P10275). Kind of assay: ANDROGEN/H Eurofins SafetyScreen44 (BI). The conditions noted are these: Compound concentration 10.0 uM.
In assay [10] the target is Beta-1 adrenergic receptor (Homo sapiens) (UniProt P08588). Description: BETA1/HUM Eurofins SafetyScreen44 (BI). The conditions noted are these: Compound concentration 10.0 uM.
Sequence of Beta-1 adrenergic receptor (Homo sapiens) (P08588 whole entry, looked up): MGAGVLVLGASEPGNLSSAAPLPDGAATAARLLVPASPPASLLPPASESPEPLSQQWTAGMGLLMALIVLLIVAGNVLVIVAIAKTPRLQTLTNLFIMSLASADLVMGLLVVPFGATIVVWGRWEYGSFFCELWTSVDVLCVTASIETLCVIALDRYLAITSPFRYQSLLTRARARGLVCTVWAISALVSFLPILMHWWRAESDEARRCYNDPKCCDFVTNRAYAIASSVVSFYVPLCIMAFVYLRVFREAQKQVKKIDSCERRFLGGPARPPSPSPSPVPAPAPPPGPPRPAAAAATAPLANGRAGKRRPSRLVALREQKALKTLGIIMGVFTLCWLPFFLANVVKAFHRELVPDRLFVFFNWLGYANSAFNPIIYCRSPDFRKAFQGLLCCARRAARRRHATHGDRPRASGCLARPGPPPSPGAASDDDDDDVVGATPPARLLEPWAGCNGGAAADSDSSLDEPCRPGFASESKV
The target in assay [11] is Mu-type opioid receptor (Homo sapiens) (UniProt P35372). Description: MU/H Eurofins SafetyScreen44 (BI). The conditions noted are these: Compound concentration 10.0 uM.
Sequence of Mu-type opioid receptor (Homo sapiens) (P35372 whole entry): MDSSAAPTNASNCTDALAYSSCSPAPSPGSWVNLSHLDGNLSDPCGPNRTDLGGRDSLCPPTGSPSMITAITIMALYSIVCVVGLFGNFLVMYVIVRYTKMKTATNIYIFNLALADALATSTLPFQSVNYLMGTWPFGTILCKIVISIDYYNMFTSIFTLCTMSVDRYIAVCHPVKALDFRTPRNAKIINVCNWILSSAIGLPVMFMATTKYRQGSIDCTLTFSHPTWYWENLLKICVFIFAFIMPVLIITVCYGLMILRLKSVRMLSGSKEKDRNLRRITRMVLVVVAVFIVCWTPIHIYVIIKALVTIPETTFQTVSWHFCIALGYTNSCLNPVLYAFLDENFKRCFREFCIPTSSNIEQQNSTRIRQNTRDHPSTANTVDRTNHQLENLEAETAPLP
For assay [12], the target named is Glutamate receptor ionotropic, kainate 1 (Rattus norvegicus) (UniProt P22756). Kind of assay: KAINATE/R Eurofins SafetyScreen44 (BI). The settings on record: Compound concentration 10.0 uM.
In assay [13] the target is Cannabinoid receptor 1 (Homo sapiens) (UniProt P21554). Kind of assay: CB1 Eurofins SafetyScreen44 (BI). The conditions noted are these: Compound concentration 10.0 uM.
For assay [14], the target named is B1 bradykinin receptor (Homo sapiens) (UniProt P46663). Description: B1/H Eurofins SafetyScreen44 (BI). The conditions noted are these: Compound concentration 10.0 uM.
Assay [15] concerns the target P2Y purinoceptor 1 (Rattus norvegicus) (UniProt P49651). Kind of assay: P2Y/RAT Eurofins SafetyScreen44 (BI). The conditions noted are these: Compound concentration 10.0 uM.
Assay [16] concerns the target Mu-type opioid receptor (Homo sapiens) (UniProt P35372). Kind of assay: MU/HU Eurofins SafetyScreen44 (BI). The conditions noted are these: Compound concentration 10.0 uM.
The target in assay [17] is Neuropeptide Y receptor type 1 (Homo sapiens) (UniProt P25929). Kind of assay: Y1/HU Eurofins SafetyScreen44 (BI). The conditions noted are these: Compound concentration 10.0 uM.
The target in assay [18] is Peroxisome proliferator-activated receptor gamma (Homo sapiens) (UniProt P37231). Kind of assay: PPARG/H AG Eurofins SafetyScreen44 (BI). The settings on record: filed as agonist, Compound concentration 10.0 uM.
In assay [19] the target is D(2) dopamine receptor (Homo sapiens) (UniProt P14416). Description: D2S/HU Eurofins SafetyScreen44 (BI). The settings on record: Compound concentration 10.0 uM.
Assay [20] addresses Substance-P receptor (Homo sapiens) (UniProt P25103). Kind of assay: NK1/HU Eurofins SafetyScreen44 (BI). The conditions noted are these: Compound concentration 10.0 uM.
Assay [21] concerns the target Beta-1 adrenergic receptor (Homo sapiens) (UniProt P08588). The conditions noted are these: Compound concentration 10.0 uM.
For assay [22], the target named is Sodium-dependent noradrenaline transporter (Homo sapiens) (UniProt P23975). Kind of assay: NETRANS/H Eurofins SafetyScreen44 (BI). The settings on record: Compound concentration 10.0 uM.
Sequence of Sodium-dependent noradrenaline transporter (Homo sapiens) (P23975 whole entry): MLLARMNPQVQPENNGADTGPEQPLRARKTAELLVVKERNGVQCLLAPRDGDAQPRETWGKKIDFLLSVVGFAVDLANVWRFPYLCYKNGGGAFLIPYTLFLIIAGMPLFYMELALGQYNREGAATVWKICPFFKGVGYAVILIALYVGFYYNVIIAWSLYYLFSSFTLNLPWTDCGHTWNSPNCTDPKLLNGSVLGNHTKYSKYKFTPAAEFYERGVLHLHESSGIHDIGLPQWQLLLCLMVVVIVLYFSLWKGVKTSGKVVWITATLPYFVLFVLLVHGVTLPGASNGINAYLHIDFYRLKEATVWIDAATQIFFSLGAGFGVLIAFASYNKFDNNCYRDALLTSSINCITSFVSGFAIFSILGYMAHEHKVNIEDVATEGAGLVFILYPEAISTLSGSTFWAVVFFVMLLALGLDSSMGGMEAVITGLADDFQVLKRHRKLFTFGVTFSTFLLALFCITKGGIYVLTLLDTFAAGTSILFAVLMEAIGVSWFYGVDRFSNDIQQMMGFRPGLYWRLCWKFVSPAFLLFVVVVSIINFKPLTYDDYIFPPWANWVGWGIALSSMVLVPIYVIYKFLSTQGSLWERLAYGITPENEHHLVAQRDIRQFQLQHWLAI
Assay [23] concerns the target Platelet-activating factor receptor (Homo sapiens) (UniProt P25105). Kind of assay: PAF/H Eurofins SafetyScreen44 (BI). The conditions noted are these: Compound concentration 10.0 uM.
Assay [24] addresses Nicotinic acetylcholine receptor alpha-1/beta-1 (Homo sapiens) (UniProt P02708+P11230). Description: NACH_BS_N/H Eurofins SafetyScreen44 (BI). The format is protein-complex assay. The conditions noted are these: Compound concentration 10.0 uM.
For assay [25], the target named is ATP-sensitive inward rectifier potassium channel 1 isoform X1 (Mesocricetus auratus) (UniProt A0A1U8CU73). Kind of assay: K+/KATP/HA Eurofins SafetyScreen44 (BI). The settings on record: Cricetinae; Compound concentration 10.0 uM.
Assay [26] addresses GABA-A receptor; anion channel. Description: GPCRScan assay: inhibition of GABAA/BZP. The format is protein-complex assay, Rattus norvegicus. Details: radioligand conc. used [nm] 0.6 – 4.0, parental cells brain tissue.
The target of assay [27] is T1, Alpha-2C adrenergic receptor (Homo sapiens) (UniProt P18825).
T1 sequence (whole entry): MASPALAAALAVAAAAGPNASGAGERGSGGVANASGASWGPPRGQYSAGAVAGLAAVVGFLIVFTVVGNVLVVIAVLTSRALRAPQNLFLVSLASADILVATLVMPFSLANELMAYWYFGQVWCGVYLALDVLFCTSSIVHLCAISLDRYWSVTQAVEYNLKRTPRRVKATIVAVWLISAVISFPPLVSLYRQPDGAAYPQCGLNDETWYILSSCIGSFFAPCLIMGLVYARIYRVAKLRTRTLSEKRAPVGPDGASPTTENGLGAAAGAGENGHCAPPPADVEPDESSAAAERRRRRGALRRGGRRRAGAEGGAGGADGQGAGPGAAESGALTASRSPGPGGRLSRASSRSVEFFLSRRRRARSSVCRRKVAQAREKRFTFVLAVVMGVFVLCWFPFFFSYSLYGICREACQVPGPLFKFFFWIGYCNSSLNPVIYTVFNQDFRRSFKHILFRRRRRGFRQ
Kind of assay: ALPHA2C/H Eurofins SafetyScreen44 (BI).

The target in assay [28] is Sodium-dependent serotonin transporter (Homo sapiens) (UniProt P31645). Description: 5HTTRANS/HU Eurofins SafetyScreen44 (BI). The settings on record: Compound concentration 10.0 uM.
Assay [29] addresses Cysteinyl leukotriene receptor 1 (Homo sapiens) (UniProt Q9Y271). Kind of assay: CYSLT1_HS Eurofins SafetyScreen44 (BI). The conditions noted are these: Compound concentration 10.0 uM.
The target of assay [30] is Muscarinic acetylcholine receptor M3 (Homo sapiens, UniProt P20309). Description: M3/HU Eurofins SafetyScreen44 (BI).
Sequence of Muscarinic acetylcholine receptor M3 (P20309 whole entry, looked up): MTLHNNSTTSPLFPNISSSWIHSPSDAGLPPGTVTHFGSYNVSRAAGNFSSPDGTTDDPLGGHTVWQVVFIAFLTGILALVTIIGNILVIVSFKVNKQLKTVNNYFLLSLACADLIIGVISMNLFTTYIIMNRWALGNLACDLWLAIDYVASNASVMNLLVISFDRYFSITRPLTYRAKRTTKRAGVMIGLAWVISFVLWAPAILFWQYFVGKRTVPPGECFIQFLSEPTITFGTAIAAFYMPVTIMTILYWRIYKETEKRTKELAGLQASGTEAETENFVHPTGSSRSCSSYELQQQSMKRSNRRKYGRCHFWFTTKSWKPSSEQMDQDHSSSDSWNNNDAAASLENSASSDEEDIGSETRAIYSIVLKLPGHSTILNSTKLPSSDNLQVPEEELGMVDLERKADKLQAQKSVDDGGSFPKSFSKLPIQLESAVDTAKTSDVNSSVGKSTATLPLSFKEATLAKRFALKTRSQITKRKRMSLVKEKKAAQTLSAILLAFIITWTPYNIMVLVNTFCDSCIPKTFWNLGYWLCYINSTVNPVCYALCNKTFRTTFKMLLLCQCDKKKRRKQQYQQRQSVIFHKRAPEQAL
The target in assay [31] is Beta-1 adrenergic receptor (Homo sapiens) (UniProt P08588). Description: BETA1/HU Eurofins SafetyScreen44 (BI). The settings on record: Compound concentration 10.0 uM.
The target in assay [32] is Sodium-dependent dopamine transporter (Homo sapiens) (UniProt Q01959). Description: DATRANS/H Eurofins SafetyScreen44 (BI). The settings on record: Compound concentration 10.0 uM.
Assay [33] deals with Delta-type opioid receptor (Homo sapiens) (UniProt P41143). Kind of assay: DELTA/HU Eurofins SafetyScreen44 (BI). The conditions noted are these: Compound concentration 10.0 uM.

Sequence of Glutamate receptor ionotropic, NMDA 2A (Rattus norvegicus) (Q00959 23-1464 limits assumed): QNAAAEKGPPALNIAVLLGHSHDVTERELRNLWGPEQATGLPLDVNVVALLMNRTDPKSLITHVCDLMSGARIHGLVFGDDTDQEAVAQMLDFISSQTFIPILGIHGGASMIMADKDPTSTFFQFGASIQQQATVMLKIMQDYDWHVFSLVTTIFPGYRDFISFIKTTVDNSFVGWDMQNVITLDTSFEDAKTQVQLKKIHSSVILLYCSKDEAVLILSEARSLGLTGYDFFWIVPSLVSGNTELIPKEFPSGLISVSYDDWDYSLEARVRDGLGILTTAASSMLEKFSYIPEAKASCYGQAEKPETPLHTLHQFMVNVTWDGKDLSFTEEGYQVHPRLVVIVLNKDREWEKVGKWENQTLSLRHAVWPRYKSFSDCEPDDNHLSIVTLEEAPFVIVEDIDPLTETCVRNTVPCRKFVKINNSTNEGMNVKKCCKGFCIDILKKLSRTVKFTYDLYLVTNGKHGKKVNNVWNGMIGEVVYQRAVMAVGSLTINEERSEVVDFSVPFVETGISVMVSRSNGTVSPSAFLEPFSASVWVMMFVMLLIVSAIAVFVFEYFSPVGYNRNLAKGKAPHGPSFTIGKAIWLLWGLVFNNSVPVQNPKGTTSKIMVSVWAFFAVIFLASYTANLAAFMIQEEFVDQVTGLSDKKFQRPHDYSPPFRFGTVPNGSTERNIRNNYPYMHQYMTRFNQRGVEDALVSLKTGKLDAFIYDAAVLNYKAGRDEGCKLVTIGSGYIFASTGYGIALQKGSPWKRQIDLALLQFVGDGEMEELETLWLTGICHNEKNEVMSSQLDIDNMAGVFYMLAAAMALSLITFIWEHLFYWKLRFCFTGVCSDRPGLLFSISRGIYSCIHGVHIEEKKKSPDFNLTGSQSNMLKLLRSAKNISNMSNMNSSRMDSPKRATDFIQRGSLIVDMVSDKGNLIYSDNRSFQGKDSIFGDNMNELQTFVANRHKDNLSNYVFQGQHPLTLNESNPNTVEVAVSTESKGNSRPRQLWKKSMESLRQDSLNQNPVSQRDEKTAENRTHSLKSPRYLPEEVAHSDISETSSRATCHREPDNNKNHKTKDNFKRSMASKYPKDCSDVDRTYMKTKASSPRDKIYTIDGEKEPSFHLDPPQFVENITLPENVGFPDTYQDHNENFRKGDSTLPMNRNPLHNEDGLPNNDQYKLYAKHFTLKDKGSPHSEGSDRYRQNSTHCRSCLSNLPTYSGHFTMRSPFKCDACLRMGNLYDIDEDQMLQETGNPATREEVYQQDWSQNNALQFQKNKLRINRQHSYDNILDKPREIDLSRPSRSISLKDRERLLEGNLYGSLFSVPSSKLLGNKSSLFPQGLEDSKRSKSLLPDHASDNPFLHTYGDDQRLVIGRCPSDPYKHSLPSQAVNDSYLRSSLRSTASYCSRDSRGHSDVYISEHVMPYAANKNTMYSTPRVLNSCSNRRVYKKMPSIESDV
Sequence of Cannabinoid receptor 2 (Homo sapiens) (P34972 whole entry): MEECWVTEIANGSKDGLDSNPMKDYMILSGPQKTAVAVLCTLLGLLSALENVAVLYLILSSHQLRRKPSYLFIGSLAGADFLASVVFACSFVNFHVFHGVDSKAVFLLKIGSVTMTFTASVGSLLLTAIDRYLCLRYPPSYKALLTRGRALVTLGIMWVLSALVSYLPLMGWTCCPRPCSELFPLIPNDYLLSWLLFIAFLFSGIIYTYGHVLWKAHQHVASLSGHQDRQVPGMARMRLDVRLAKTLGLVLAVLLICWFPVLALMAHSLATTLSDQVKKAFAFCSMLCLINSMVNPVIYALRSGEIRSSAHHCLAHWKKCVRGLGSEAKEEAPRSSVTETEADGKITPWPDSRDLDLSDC

Regarding `COCCCS(=O)(=O)c1cc(C)c(-c2ccc(F)c3c2CC[C@H]3Oc2ccc3c(c2)OC[C@H]3CC(=O)O)c(C)c1`, the residual activity is 77% in [1]; 93% in [2]; 115% in [3]; 99% in [4]; 109% in assay [5]; 108% in [6]. For the same molecule, the residual activity in assay [7] was 87%; in assay [8] it was 96%; in assay [9], 102%; in assay [10], 88%; in [11] it was 75%.
Regarding `Cc1cc(OCCC(C)(C)O)cc(C)c1-c1ccc(F)c2c1CC[C@H]2Oc1ccc2c(c1)OC[C@H]2CC(=O)O`, the residual activity is 117% in [12]; 100% in assay [13]; 91% in assay [14]; 87% in [15]; 76% in assay [16]; 108% in [17]. In addition, the residual activity in [18] is 8%; in [19] it was 100%; in assay [20], 113%; in assay [22] it was 68%; in assay [23], 97%; in [24], 84%. In addition, the residual activity was 95% in assay [25]; 93% in assay [27] (Compound concentration 0.1 uM); 100% in [27] (Compound concentration 0.3 uM); 95% in assay [27] (Compound concentration 1.0 uM); 82% in assay [27] (Compound concentration 3.0 uM); 23% in assay [27] (Compound concentration 10.0 uM). For the same molecule, the residual activity in assay [27] (Compound concentration 30.0 uM) was 1%; in [28], 106%; in assay [29], 31%; in assay [30] (Compound concentration 0.3 uM), 83%; in [30] (Compound concentration 1.0 uM) it was 75%; in assay [30] (Compound concentration 3.0 uM) it was 60%. For the same molecule, the residual activity is 54% in assay [30] (Compound concentration 10.0 uM); 28% in assay [30] (Compound concentration 30.0 uM); 98% in [31]; 68% in assay [32]; 74% in assay [33]. For the same molecule, in assay [21], the inhibition was 4.62%. For the same molecule, in assay [26], the inhibition constant Ki was more than 10 µM. In [26], the pKi is reported as less than 5.
